Experimental data from US9212168B2 (priority 2011, dated 2015).

How the values were obtained:
[1] = test system: HCV genotype 1a replicon; experiment: HCV genotype 1a replicon assay (NS3 protease activity readout); format: cell-based, hepatitis C virus; details: for EC50: Hepatitis C virus, read-out: Genotype 1a, HCV genotype 1a replicon
Method in brief: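 EC50 values came from a 4-parameter robust fit of fluorescence (ex 340, em 509 nm) produced by NS3-specific protease in lysates, assayed with 15 μM FRET substrate for 20 min at 37° C, after 48 or 72 hours of compound exposure (0.5% DMSO) of Huh7.5-derived APC89 genotype 1a replicon cells.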

[2] = test system: HCV genotype 1b replicon; experiment: HCV genotype 1b replicon assay (Renilla luciferase readout); format: cell-based, hepatitis C virus; details: for EC50: Hepatitis C virus, read-out: Genotype 1b
Method in brief: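 Reported as pEC50 derived from a 4-parameter fit of Renilla luciferase activity against concentration. Replicon cells (APC144, Huh7 background) were exposed to compound for 48 h in G418-free medium with final 0.5% DMSO, after seeding at 10,000 cells/well and 4 h adherence.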

[3] = test system: HCV genotype 3a NS5A chimeric replicon; experiment: Replicon assay against NS5A sequence of genotype 3a, intergenotypic chimera; format: cell-based; details: Hepatitis C virus, read-out: Genotype 3a
Method: (§1) Assay 4: Replicon Assays Against NS5A Sequences of Other Genotypes
(§2) Potencies of test compounds against NS5A sequences of other genotypes were determined by creating intergenotypic chimeras. The entire NS5A gene from genotypes 2a, 2b, 3a, 4a, 5a, and 6a, or the nucleotide sequence encoding amino acids 11-118 of NS5A, was subcloned into a genotype 1b replicon. For genotype 2a, intergenotypic chimeras with both the JFH and the J6 strain were created. […] Since the majority of genotype 2a sequences in public databases contain the L31M sequence variant, the use of the J6 genotype 2a sequence may better reflect the antiviral potency of NS5A inhibitors.
(§3) These chimeric replicon plasmids were then linearized and in vitro transcribed to RNA. The RNA was used to transiently or stably transfect Huh-LUNET cells by electroporation, and the potencies of test compounds against the chimeras were determined as previously described.

[4] = test system: HCV genotype 1a Y93H resistant mutant replicon; experiment: Replicon assay against resistant mutant 1a Y93H (transient transfection); format: cell-based; details: Hepatitis C virus, read-out: Genotype 1a Y93H
Method: Assay 3: Replicon Assays Against Resistant Mutants […]
Potencies of test compounds against additional mutations of interest were determined using transient transfection assays. These mutants included genotype 1a Y93C, Y93H, M28T, Q30E, Q30K, L31M, and Y93N. The mutation was first introduced into the parental plasmid by site-directed mutagenesis. The replicon plasmid was then linearized and in vitro transcribed to RNA. The RNA was used to transiently transfect Huh-LUNET cells (obtained from ReBLikon GmbH, Schriesheim, Germany) by electroporation, and the potencies of test compounds against the mutants were determined as previously described.

[5] = test system: HCV genotype 2a (J6 strain) NS5A chimeric replicon; experiment: Replicon assay against NS5A sequence of genotype 2a (J6 strain), intergenotypic chimera; format: cell-based; details: Hepatitis C virus, read-out: Genotype 2a (J6)
Method: as §1, §2, §3

| SMILES | EC50 [1] [nM] | EC50 [2] [nM] | EC50 [3] [nM] | EC50 [4] [nM] | EC50 [5] [nM] | Genotype 1a ([1]; HCV genotype 1a replicon) | Genotype 1b ([2]; HCV genotype 1b replicon) |
| --- | --- | --- | --- | --- | --- | --- | --- |
| COC(=O)N[C@H](C(=O)N1C[C@@H](C)C[C@H]1c1nc(-c2ccc(-c3ccc(C(=O)Nc4ccc(N5CCN(C(=O)C(C)(C)C)C[C@H]5C)nc4)cc3OC(F)(F)F)cc2)c(Cl)[nH]1)C(C)C [Example 12, ((S)-1-{(2S,4S)-2-[5-Chloro-4-(4′-{6-[(R)-4-(2,2-dimethyl-propionyl)-2-methyl-piperazin-1-yl]-pyridin-3-ylcarbamoyl}-2′-trifluoromethoxy-biphenyl-4-yl)-1H-imidazol-2-yl]-4-methyl-pyrrolidine-1-carbonyl}-2-methyl-propyl)-carbamic acid methyl ester] | < 0.1 | < 0.1 | 1 to 10 | 1 to 10 | 1 to 10 |  |  |
| CNC(=O)N1C[C@@H](C)N(c2ccc(C(=O)Nc3cc(OC(F)(F)F)c(-c4ccc(-c5c[nH]c([C@@H]6C[C@H](C)CN6C(=O)[C@@H](NC(=O)OC)C(C)C)n5)cc4)cc3Cl)cn2)C[C@@H]1C [Example 1, ((S)-1-{(2S,4S)-2-[4-(5′-Chloro-4′-{[6-((2R,5S)-2,5-dimethyl-4-methylcarbamoyl-piperazin-1-yl)-pyridine-3-carbonyl]-amino}-2′-trifluoromethoxy-biphenyl-4-yl)-1H-imidazol-2-yl]-4-methyl-pyrrolidine-1-carbonyl}-2-methyl-propyl)-carbamic acid methyl ester] | < 0.1 | < 0.1 | 10 to 1000 | 10 to 1000 | 10 to 1000 |  |  |
| COC(=O)N[C@H](C(=O)N1C[C@@H](OC)C[C@H]1c1nc(-c2ccc(-c3cc(Cl)c(NC(=O)c4ccc(N5CCN(C(=O)C(C)(C)C)C[C@H]5C)nc4)cc3OC(F)(F)F)cc2)c[nH]1)C1CCOCC1 [Example 15] | < 0.1 | < 0.1 | 0.1 to 1 | 1 to 10 | 0.1 to 1 |  |  |
| COC(=O)N[C@H](C(=O)N1C[C@@H](OC)C[C@H]1c1nc(-c2ccc(-c3cc(Cl)c(NC(=O)c4ccc(N5CCN(C(=O)C(C)(C)C)C[C@H]5C)nc4)cc3OC(F)(F)F)cc2)c[nH]1)C(C)C [Example 13] | < 0.1 | < 0.1 | 0.1 to 1 | 1 to 10 | 0.1 to 1 |  |  |
| COC(=O)N[C@H](C(=O)N1C[C@@H](C)C[C@H]1c1nc(-c2ccc(-c3ccc(C(=O)Nc4ccc(N5CCN(C(=O)C(C)(C)C)C[C@H]5C)nc4)c(F)c3OC(F)(F)F)cc2)c[nH]1)C1CCOCC1 [Example 21, Methyl ((S)-2-((2S,4S)-2-(4-(3′-fluoro-4′-((6-((R)-2-methyl-4-pivaloyl-piperazin-1-yl)pyridin-3-yl)carbamoyl)-2′-(trifluoromethoxy)-[1,1′-biphenyl]-4-yl)-1H-imidazol-2-yl)-4-methylpyrrolidin-1-yl)-2-oxo-1-(tetrahydro-2H-pyran-4-yl)ethyl)carbamate] | < 0.1 | < 0.1 | 0.1 to 1 | 0.1 to 1 | 0.1 to 1 |  |  |
| COC(=O)N[C@H](C(=O)N1C[C@@H](C)C[C@H]1c1nc(-c2ccc(-c3ccc(C(=O)Nc4ccc(N5CCN(C(=O)[C@H]6CC6(C)C)C[C@H]5C)nc4)cc3OC(F)(F)F)cc2)c[nH]1)C(C)C [Example 8, ((S)-1-{(2S,4S)-2-[4-(4′-{6-[(R)-4-((S)-2,2-Dimethyl-cyclopropanecarbonyl)-2-methyl-piperazin-1-yl]-pyridin-3-ylcarbamoyl}-2′-trifluoromethoxy-biphenyl-4-yl)-1H-imidazol-2-yl]-4-methyl-pyrrolidine-1-carbonyl}-2-methyl-propyl)-carbamic acid methyl ester] | < 0.1 | < 0.1 | 10 to 1000 | 10 to 1000 | 10 to 1000 |  |  |
| COC(=O)N[C@H](C(=O)N1C[C@@H](C)C[C@H]1c1nc(-c2ccc(-c3cc(Cl)c(NC(=O)c4ccc(N5CCN(C(=O)[C@H]6CC6(C)C)C[C@H]5C)nc4)cc3OC(F)(F)F)cc2)c[nH]1)C(C)C [Example 2, [(S)-1-((2S,4S)-2-{4-[5′-Chloro-4′-({6-[(R)-4-((S)-2,2-dimethyl-cyclopropanecarbonyl)-2-methyl-piperazin-1-yl]-pyridine-3-carbonyl}-amino)-2′-trifluoromethoxy-biphenyl-4-yl]-1H-imidazol-2-yl}-4-methyl-pyrrolidine-1-carbonyl)-2-methyl-propyl]-carbamic acid methyl ester] | < 0.1 | < 0.1 | 1 to 10 |  | 1 to 10 |  |  |
| COC(=O)N[C@H](C(=O)N1C[C@@H](C)C[C@H]1c1nc(-c2ccc(-c3cc(Cl)c(C(=O)Nc4ccc(N5CCN(C(=O)C(C)(C)C)C[C@H]5C)nc4)cc3OC(F)(F)F)cc2)c[nH]1)C1CCOCC1 [Example 19, Methyl ((S)-2-((2S,4S)-2-(4-(5′-chloro-4′-((6-((R)-2-methyl-4-pivaloylpiperazin-1-yl)pyridin-3-yl)carbamoyl)-2′-(trifluoromethoxy)-[1,1′-biphenyl]-4-yl)-1H-imidazol-2-yl)-4-methylpyrrolidin-1-yl)-2-oxo-1-(tetrahydro-2H-pyran-4-yl)ethyl)carbamate] | < 0.1 | < 0.1 | 1 to 10 | 10 to 1000 | 1 to 10 |  |  |
| COC(=O)N[C@H](C(=O)N1C[C@@H](SC)C[C@H]1c1nc(-c2ccc(-c3ccc(C(=O)Nc4ccc(N5CCN(C(=O)[C@H]6CC6(C)C)C[C@H]5C)nc4)cc3OC(F)(F)F)cc2)c[nH]1)C(C)C [Example 9, ((S)-1-{(2S,4S)-2-[4-(4′-{6-[(R)-4-((S)-2,2-Dimethyl-cyclopropanecarbonyl)-2-methyl-piperazin-1-yl]-pyridin-3-ylcarbamoyl}-2′-trifluoromethoxy-biphenyl-4-yl)-1H-imidazol-2-yl]-4-methylsulfanyl-pyrrolidine-1-carbonyl}-2-methyl-propyl)-carbamic acid methyl ester] | < 0.1 | < 0.1 | 10 to 1000 |  | 10 to 1000 |  |  |
| COC(=O)N[C@H](C(=O)N1C[C@@H](C#N)C[C@H]1c1nc(-c2ccc(-c3cc(Cl)c(NC(=O)c4ccc(N5CCN(C(=O)OC(C)(C)C)C[C@H]5C)nc4)cc3OC(F)(F)F)cc2)c[nH]1)C(C)C [Example 17, (R)-4-[5-(5-Chloro-4′-{2-[(2S,4S)-4-cyano-1-((S)-2-methoxycarbonylamino-3-methyl-butyryl)-pyrrolidin-2-yl]-1H-imidazol-4-yl}-2-trifluoromethoxy-biphenyl-4-ylcarbamoyl)-pyridin-2-yl]-3-methyl-piperazine-1-carboxylic acid tert-butyl ester] | 0.1 to 1 |  | 10 to 1000 | 10 to 1000 | 10 to 1000 |  |  |
| COC(=O)N[C@H](C(=O)N1C[C@@H](C)C[C@H]1c1nc(-c2ccc(-c3ccc(C(=O)Nc4ccc(N5C[C@H](C)N(C(=O)[C@H]6CC6(C)C)C[C@H]5C)nc4)cc3OC(F)(F)F)cc2)c[nH]1)C(C)C [Example 7, ((S)-1-{(2S,4S)-2-[4-(4′-{6-[(2R,5S)-4-((S)-2,2-Dimethyl-cyclopropanecarbonyl)-2,5-dimethyl-piperazin-1-yl]-pyridin-3-ylcarbamoyl}-2′-trifluoromethoxy-biphenyl-4-yl)-1H-imidazol-2-yl]-4-methyl-pyrrolidine-1-carbonyl}-2-methyl-propyl)-carbamic acid methyl ester] | < 0.1 | < 0.1 | 10 to 1000 |  | 10 to 1000 |  |  |
| COC(=O)N[C@H](C(=O)N1C[C@@H](C(N)=O)C[C@H]1c1nc(-c2ccc(-c3cc(Cl)c(NC(=O)c4ccc(N5CCN(C(=O)C(C)(C)C)C[C@H]5C)nc4)cc3OC(F)(F)F)cc2)c[nH]1)C(C)C [Example 18, [(S)-1-((2S,4S)-4-Carbamoyl-2-{4-[5′-chloro-4′-({6-[(R)-4-(2,2-dimethyl-propionyl)-2-methyl-piperazin-1-yl]-pyridine-3-carbonyl}-amino)-2′-trifluoromethoxy-biphenyl-4-yl]-1H-imidazol-2-yl}-pyrrolidine-1-carbonyl)-2-methyl-propyl]-carbamic acid methyl ester] | < 0.1 | < 0.1 | 1 to 10 | 1 to 10 | 0.1 to 1 |  |  |
| CNC(=O)N1CCC[C@@H]1C(=O)N1C[C@@H](C)N(c2ccc(NC(=O)c3ccc(-c4ccc(-c5c[nH]c([C@@H]6C[C@H](C)CN6C(=O)[C@@H](NC(=O)OC)C(C)C)n5)cc4)c(OC(F)(F)F)c3)cn2)C[C@@H]1C [Example 4-19] |  |  |  |  |  | D (D represents pEC50>10 (EC50<0.1 nM)) | D (D represents pEC50>10 (EC50<0.1 nM)) |
